# Data published in the NIST ThermoML archive (doi:10.1021/acs.jced.8b01200).
# ± gives the expanded uncertainty stated by the source.
# Assay: not given
# Details: Crystal; DSC
row,Structure (SMILES),Triple point temperature [K]
1,CCCCCCCCCCCCCCCCCC(=O)OCC(COC(=O)CCCCCCCCCCCCCCCCC)OC(=O)CCCCCCCCCCCCCCCCC [glycerol trioctadecanoate],343.8 ± 1.4
2,"CCCCCCCCCCCCCCCC(=O)OCC(COC(=O)CCCCCCCCCCCCCCC)OC(=O)CCCCCCCCCCCCCCC [1,2,3-propanetriyl tri(hexadecanoate)]",336.8 ± 1.4
3,"CCCCCCCCCCCCCC(=O)OCC(COC(=O)CCCCCCCCCCCCC)OC(=O)CCCCCCCCCCCCC [1,2,3-propanetriyl tri(tetradecanoate)]",329.4 ± 1.4

# Further lines, results first:
row,Triple point temperature [K],Structure (SMILES)
1,314.4 ± 2.4,CC(C)[C@@H]1CC[C@@H](C)C[C@H]1O [L-menthol]
2,321.9 ± 1.4,Cc1ccc(C(C)C)c(O)c1 [3-methyl-6-isopropylphenol]

# Assay: Molar enthalpy of transition or fusion
# Details: Crystal; DSC
row,Structure (SMILES),Molar enthalpy of transition or fusion [kcal/mol]
1,CCCCCCCCCCCCCCCCCC(=O)OCC(COC(=O)CCCCCCCCCCCCCCCCC)OC(=O)CCCCCCCCCCCCCCCCC [glycerol trioctadecanoate],44 ± 0.884
2,"CCCCCCCCCCCCCCCC(=O)OCC(COC(=O)CCCCCCCCCCCCCCC)OC(=O)CCCCCCCCCCCCCCC [1,2,3-propanetriyl tri(hexadecanoate)]",37.9 ± 0.789
3,"CCCCCCCCCCCCCC(=O)OCC(COC(=O)CCCCCCCCCCCCC)OC(=O)CCCCCCCCCCCCC [1,2,3-propanetriyl tri(tetradecanoate)]",34.5 ± 0.741

# Further lines, results first:
row,Molar enthalpy of transition or fusion [kcal/mol],Structure (SMILES)
1,2.85 ± 0.454,CC(C)[C@@H]1CC[C@@H](C)C[C@H]1O [L-menthol]
2,3.11 ± 0.502,Cc1ccc(C(C)C)c(O)c1 [3-methyl-6-isopropylphenol]
